According to ChEMBL document CHEMBL4483862, “Open-source discovery of chemical leads for next-generation chemoprotective antimalarials” (2018):

System: Plasmodium berghei
Assay: Luciferase/luciferin-expressing antifolate-resistant parasites were used to infect a culture of HepG2 cells that were pre-incubated with compounds. Infected hepatocytes emit light due to the luciferase reaction. Assay results are presented as the percent inhibition of light emission compared to control. […]
Assay type: functional
Conditions: sporozoite; for IC90: read-out: LUCIFERASE INFECTION ASSAY - IC90
[1] = read-out: LUCIFERASE INFECTION ASSAY - IC50

Row | Compound | IC90 | IC50 [1] | other results
1 | O=[N+]([O-])c1ccccc1Sc1sc2ncnc(N/N=C/c3cccs3)c2c1-c1ccccc1 | 1.17 µM | – | IC50 (FFLUC_HILL_SLOPE 2.47, FFLUC_R_SQUARED 0.702, HEPG2TOX_HILL_SLOPE 1.48, HEPG2TOX_R_SQUARED 0.963, PBLUC_HILL_SLOPE 5.47, PBLUC_R_SQUARED 0.841, read-out: LUCIFERASE INFECTION ASSAY - IC50): 0.785 µM
2 | COc1ccc(CNCc2ccc3ccccc3c2)cc1 | > 11.9 µM | > 11.9 µM | –
3 | CCOC(=O)c1cnn(-c2ccc(NC(=O)c3sc4nc5n(c(=O)c4c3C)CCC5)cc2)c1C | 2.97 µM | – | IC50 (HEPG2TOX_HILL_SLOPE 2.74, HEPG2TOX_R_SQUARED 0.98, PBLUC_HILL_SLOPE 1.74, PBLUC_R_SQUARED 0.848, read-out: LUCIFERASE INFECTION ASSAY - IC50): 0.838 µM
4 | Cc1nn(-c2ccc(F)cc2)c2ncc(C(=O)Nc3nc(C4CC4)cs3)cc12 | 4.45 µM | – | IC50 (PBLUC_HILL_SLOPE 2.65, PBLUC_R_SQUARED 0.58, read-out: LUCIFERASE INFECTION ASSAY - IC50): 1.94 µM
5 | O=C(c1cnc2cc3c(cc2c1)OCCO3)c1cc(F)ccc1O | 2.41 µM | – | IC50 (HEPG2TOX_HILL_SLOPE 1.24, HEPG2TOX_R_SQUARED 0.963, PBLUC_HILL_SLOPE 1.6, PBLUC_R_SQUARED 0.807, read-out: LUCIFERASE INFECTION ASSAY - IC50): 0.612 µM
6 | Cc1cc(C(=O)CSc2nnc3n2CCCCC3)c(C)n1-c1ccccc1 | > 10 µM | – | IC50 (FFLUC_HILL_SLOPE 0.849, FFLUC_R_SQUARED 0.0339, PBLUC_HILL_SLOPE 12.7, PBLUC_R_SQUARED 0.127, read-out: LUCIFERASE INFECTION ASSAY - IC50): 9.31 µM
7 | CCC(C)(C)c1ccc(Oc2ccc(NC(=O)COC(=O)CNC(=O)c3ccc(C)c(C)c3)cc2)cc1 | > 10 µM | – | IC50 (PBLUC_HILL_SLOPE 2.53, PBLUC_R_SQUARED 0.335, read-out: LUCIFERASE INFECTION ASSAY - IC50): 6.55 µM
8 | CCOC(=O)c1cc(C#N)c(Sc2nnc(SCC3CC3)s2)nc1C(F)(F)F | > 7.39 µM | – | IC50 (HEPG2TOX_HILL_SLOPE 8.92, HEPG2TOX_R_SQUARED 0.488, read-out: LUCIFERASE INFECTION ASSAY - IC50): > 7.39 µM
9 | CC(C)N1C(=O)/C(=N\NC(=S)NC2CCCCC2)c2ccccc21 | > 10 µM | – | IC50 (FFLUC_HILL_SLOPE 3.74, FFLUC_R_SQUARED 0.413, HEPG2TOX_HILL_SLOPE 6.6, HEPG2TOX_R_SQUARED 0.125, read-out: LUCIFERASE INFECTION ASSAY - IC50): > 10 µM
10 | CS(=O)(=O)c1ccc(S(=O)(=O)Nc2cccc3c2CCCC3)cc1 | > 10 µM | > 10 µM | –
11 | CCn1ccnc1C(=O)Nc1nc(-c2ccc3c(c2)OCCO3)cs1 | 1.92 µM | – | IC50 (HEPG2TOX_HILL_SLOPE 10.1, HEPG2TOX_R_SQUARED 0.135, PBLUC_HILL_SLOPE 182, PBLUC_R_SQUARED 0.438, read-out: LUCIFERASE INFECTION ASSAY - IC50): 1.89 µM
12 | COc1ccc(-c2cnc3ccc(NCc4cccc(Cl)c4)nn23)cn1 | 7.71 µM | – | IC50 (PBLUC_HILL_SLOPE 5.4, PBLUC_R_SQUARED 0.229, read-out: LUCIFERASE INFECTION ASSAY - IC50): 5.13 µM
13 | N#Cc1ccc(C(=O)Nc2ccc(Br)c(C(F)(F)F)c2)cc1 | 9.89 µM | – | IC50 (HEPG2TOX_HILL_SLOPE 28, HEPG2TOX_R_SQUARED 0.813, PBLUC_HILL_SLOPE 18.1, PBLUC_R_SQUARED 0.807, read-out: LUCIFERASE INFECTION ASSAY - IC50): 8.76 µM
14 | O=C(Nc1ccc(OC(F)(F)F)cc1)N1CCN(c2cc(C(F)(F)F)nc3ccccc23)CC1 | > 6.81 µM | > 6.81 µM | –
15 | O=C(CN1CC=C(c2ccccc2)CC1)NC(c1ccccc1)c1ccccc1 | > 10 µM | > 10 µM | –
16 | Cc1cc(C(=O)Nc2ccncc2Cl)c(C)s1 | > 10 µM | > 10 µM | –
17 | COc1ccc(C(N)=O)c(OCC(=O)c2cc(C)n(Cc3ccccc3)c2C)c1 | 9.51 µM | – | IC50 (HEPG2TOX_HILL_SLOPE 1.79, HEPG2TOX_R_SQUARED 0.962, PBLUC_HILL_SLOPE 4.42, PBLUC_R_SQUARED 0.333, read-out: LUCIFERASE INFECTION ASSAY - IC50): 5.78 µM
18 | CC(C)(C)OC(=O)NCc1ccc(C(=O)NNC(=O)c2ccccc2O)cc1 | > 10 µM | > 10 µM | –
19 | COc1cc(N(CC(=O)Nc2ccc(Cl)cc2)S(=O)(=O)c2ccc(Cl)cc2)c(Cl)cc1Cl | > 6.18 µM | – | IC50 (FFLUC_HILL_SLOPE 12.3, FFLUC_R_SQUARED 0.349, HEPG2TOX_HILL_SLOPE 3.41, HEPG2TOX_R_SQUARED 0.407, PBLUC_HILL_SLOPE 12, PBLUC_R_SQUARED 0.0202, read-out: LUCIFERASE INFECTION ASSAY - IC50): 5.6 µM
20 | CCc1c(C(=O)/C=C/c2cccc(C#N)c2)oc2ccccc12 | 9.02 µM | – | IC50 (FFLUC_HILL_SLOPE 2.17, FFLUC_R_SQUARED 0.174, HEPG2TOX_HILL_SLOPE 14.7, HEPG2TOX_R_SQUARED 0.793, PBLUC_HILL_SLOPE 2.78, PBLUC_R_SQUARED 0.439, read-out: LUCIFERASE INFECTION ASSAY - IC50): 4.09 µM
21 | COC(=O)c1c(N)[nH]c2cc(C(F)(F)F)ccc12 | > 12.8 µM | > 12.8 µM | –

Row | Compound | IC90 | IC50 [1] | other results
22 | Cc1ccc(-n2c(C)nnc2SCCCc2nc(-c3ccccc3)no2)cc1 | > 10 µM | > 10 µM | –
23 | Cc1cc(CSc2ccccc2C(=O)NNC(=O)c2ccccc2O)on1 | > 10 µM | – | IC50 (PBLUC_HILL_SLOPE 2.63, PBLUC_R_SQUARED 0.786, read-out: LUCIFERASE INFECTION ASSAY - IC50): 7.42 µM
24 | Oc1cccc2c(NC(S)=Nc3ccc(OC(F)F)cc3)cccc12 | 5.27 µM | – | IC50 (HEPG2TOX_HILL_SLOPE 12, HEPG2TOX_R_SQUARED 0.725, PBLUC_HILL_SLOPE 8.83, PBLUC_R_SQUARED 0.0853, read-out: LUCIFERASE INFECTION ASSAY - IC50): 4.11 µM
25 | Cc1nn2c(=O)cc(-c3ccccc3)[nH]c2c1-c1ccc(F)cc1 | 1.16 µM | – | IC50 (HEPG2TOX_HILL_SLOPE 1.12, HEPG2TOX_R_SQUARED 0.564, PBLUC_HILL_SLOPE 22.2, PBLUC_R_SQUARED 0.649, read-out: LUCIFERASE INFECTION ASSAY - IC50): 1.05 µM
26 | CC(C)Oc1ccccc1Nc1nc(=O)cn[nH]1 | > 13.4 µM | > 13.4 µM | –
27 | O=C(C1CCC1)N1CCN(Cc2ccc(-c3ccc(Cl)cc3)s2)CC1 | > 10 µM | – | IC50 (HEPG2TOX_HILL_SLOPE 1.83, HEPG2TOX_R_SQUARED 0.819, PBLUC_HILL_SLOPE 1.76, PBLUC_R_SQUARED 0.701, read-out: LUCIFERASE INFECTION ASSAY - IC50): 4.2 µM
28 | COc1ccc(-c2cnc3cnc(-c4ccc(N)nc4)cn23)cn1 | 9.27 µM | – | IC50 (PBLUC_HILL_SLOPE 29.9, PBLUC_R_SQUARED 0.596, read-out: LUCIFERASE INFECTION ASSAY - IC50): 8.62 µM
29 | Cc1ccnc(NC(c2ccccn2)c2ccc3cccnc3c2O)c1 (configuration not stated) | > 9.64 µM | – | IC50 (FFLUC_HILL_SLOPE 17.7, FFLUC_R_SQUARED 0.0708, HEPG2TOX_HILL_SLOPE 10.6, HEPG2TOX_R_SQUARED 0.571, PBLUC_HILL_SLOPE 38.3, PBLUC_R_SQUARED 0.424, read-out: LUCIFERASE INFECTION ASSAY - IC50): 9.27 µM
30 | Cc1occc1C(=O)N1CCN(C(=O)c2ccc3ccccc3c2)CC1 | > 2 µM | > 2 µM | –
31 | Cc1nnc(SCC(=O)Nc2ccc(Cl)cn2)n(N)c1=O | > 10 µM | > 10 µM | –
32 | COc1ccc(-c2csc(NC(=O)c3ccc(Cl)c(S(=O)(=O)N4CCc5ccccc54)c3)n2)cc1OC | > 10 µM | – | IC50 (FFLUC_HILL_SLOPE 2.97, FFLUC_R_SQUARED 0.574, read-out: LUCIFERASE INFECTION ASSAY - IC50): > 10 µM
33 | O=C1C=CC(=O)N1c1ccc(F)cc1F | 13.8 µM | – | IC50 (FFLUC_HILL_SLOPE 8.62, FFLUC_R_SQUARED 0.718, PBLUC_HILL_SLOPE 4.26, PBLUC_R_SQUARED 0.573, read-out: LUCIFERASE INFECTION ASSAY - IC50): 8.24 µM
34 | CCCCC1(c2ccccc2)NC(=O)N(CC(=O)Nc2ccc(C#N)c(Cl)c2)C1=O (configuration not stated) | > 10 µM | > 10 µM | –
35 | COCCCNc1nccc2nc(-c3cccc(OC(F)(F)F)c3)[nH]c12 | > 10 µM | – | IC50 (HEPG2TOX_HILL_SLOPE 4.74, HEPG2TOX_R_SQUARED 0.77, PBLUC_HILL_SLOPE 3.71, PBLUC_R_SQUARED 0.224, read-out: LUCIFERASE INFECTION ASSAY - IC50): 5.72 µM
36 | Cc1ccnc(SCc2cc(=O)n3nc(C)c(-c4ccc(F)cc4)c3[nH]2)n1 | > 8.65 µM | – | IC50 (FFLUC_HILL_SLOPE 7.05, FFLUC_R_SQUARED 0.398, PBLUC_HILL_SLOPE 2.1, PBLUC_R_SQUARED 0.785, read-out: LUCIFERASE INFECTION ASSAY - IC50): > 8.65 µM
37 | CC(C)c1ccc(CN(C(=O)Cc2c[nH]c3ccccc23)C2CC2)cc1 | > 10 µM | – | IC50 (PBLUC_HILL_SLOPE 3.49, PBLUC_R_SQUARED 0.314, read-out: LUCIFERASE INFECTION ASSAY - IC50): > 10 µM
38 | N#Cc1ccc(NC(=O)c2cnn(Cc3ccccc3Cl)c2)cc1 | > 10 µM | > 10 µM | –
39 | Cc1ccc(C)c(NC(=S)[C-](C(=O)c2ccc3c(c2)OCCO3)[n+]2ccccc2)c1 | > 10 µM | – | IC50 (PBLUC_HILL_SLOPE 1.61, PBLUC_R_SQUARED 0.831, read-out: LUCIFERASE INFECTION ASSAY - IC50): 5.38 µM
40 | CCOc1ccc(/C=C(/C(=O)NCc2ccc(F)cc2)c2nc3ccccc3[nH]2)cc1 | 5.81 µM | – | IC50 (PBLUC_HILL_SLOPE 89.9, PBLUC_R_SQUARED 0.419, read-out: LUCIFERASE INFECTION ASSAY - IC50): 5.67 µM
41 | Cc1nnc(N(C)CCCc2n[nH]c(N)c2C#N)c2ccccc12 | > 10 µM | > 10 µM | –
